Experimental data reported in patent publication US10245261B2, “Substituted indol-5-ol derivatives and their therapeutic applications” (NantBioScience, Inc., priority 2013, dated 2019).

Legend:
Assay in all cases: KinaseProfiler kinase assay
Assay type in all cases: biochemical
[1] = biological target: Fms(h) (Homo sapiens, UniProt P07333)
In short: (§1)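 Kinase activity is followed by incorporation of 33P from [γ-33P]ATP in 8 mM MOPS pH 7.0 with 10 mM Mg acetate and 0.2 mM EDTA over 40 min at room temperature. Inhibition is scaled between no-kinase and phosphopeptide control wells.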

[2] = biological target: MAPK2(h) (Homo sapiens, UniProt P28482)
In short: as §1

[3] = biological target: MINK(h) (Homo sapiens, UniProt Q8N4C8)
In short: as §1

[4] = biological target: Rsk4(h) (Homo sapiens, UniProt Q9UK32)
In short: as §1

[5] = biological target: Arg(h) (Homo sapiens, UniProt P42684)
In short: as §1

[6] = biological target: PI3 Kinase (p113α)(H1047R)/p85α)(m) (Mus musculus, UniProt P42337, H1047R)
In short: as §1

[7] = biological target: MuSK(h) (Homo sapiens, UniProt O15146)
In short: as §1

[8] = biological target: PAK5(h) (Homo sapiens, UniProt Q9P286)
In short: as §1

[9] = biological target: ULK2(h) (Homo sapiens, UniProt Q8IYT8)
In short: as §1

[10] = biological target: cKit(h) (Homo sapiens, UniProt P10721)
In short: as §1

[11] = biological target: cKit(D816V)(h) (Homo sapiens, UniProt P10721, D816V)
In short: as §1

[12] = biological target: cKit(D816H)(h) (Homo sapiens, UniProt P10721, D816H)
In short: as §1

[13] = biological target: SRPK2(h) (Homo sapiens, UniProt P78362)
In short: as §1

[14] = biological target: PKCβI(h) (Homo sapiens, UniProt P05771)
In short: as §1

[15] = biological target: GSK3β(h) (Homo sapiens, UniProt P49841)
In short: as §1

[16] = biological target: IRAK1(h) (Homo sapiens, UniProt P51617)
In short: as §1

[17] = biological target: PKCθ(h) (Homo sapiens, UniProt Q04759)
In short: as §1

[18] = biological target: Tec(h) activated (Homo sapiens, UniProt P42680)
In short: as §1

[19] = biological target: Rsk1(h) (Homo sapiens, UniProt Q15418)
In short: as §1

[20] = biological target: MAPKAP-K3(h) (Homo sapiens, UniProt Q16644)
In short: as §1

[21] = biological target: TGFBR1(h) (Homo sapiens, UniProt P36897)
In short: as §1

[22] = biological target: Fes(h) (Homo sapiens, UniProt P07332)
In short: as §1

[23] = biological target: PhKγ2(h) (Homo sapiens, UniProt P15735)
In short: as §1

[24] = biological target: CHK2(h) (Homo sapiens, UniProt O96017)
In short: as §1

[25] = biological target: MARK1(h) (Homo sapiens, UniProt Q9P0L2)
In short: as §1

[26] = biological target: CaMKIδ(h) (Homo sapiens, UniProt Q8IU85)
In short: as §1

[27] = biological target: EphA5(h) (Homo sapiens, UniProt P54756)
In short: as §1

[28] = biological target: SGK(h) (Homo sapiens, UniProt O00141)
In short: as §1

[29] = biological target: MAPK1(h) (Homo sapiens, UniProt P27361)
In short: as §1

[30] = biological target: WNK2(h) (Homo sapiens, UniProt Q9Y3S1)
In short: as §1

[31] = biological target: DYRK2(h) (Homo sapiens, UniProt Q92630)
In short: as §1

[32] = biological target: PKCδ(h) (Homo sapiens, UniProt Q05655)
In short: as §1

EphA5(h), sequence (P54756 25-1037): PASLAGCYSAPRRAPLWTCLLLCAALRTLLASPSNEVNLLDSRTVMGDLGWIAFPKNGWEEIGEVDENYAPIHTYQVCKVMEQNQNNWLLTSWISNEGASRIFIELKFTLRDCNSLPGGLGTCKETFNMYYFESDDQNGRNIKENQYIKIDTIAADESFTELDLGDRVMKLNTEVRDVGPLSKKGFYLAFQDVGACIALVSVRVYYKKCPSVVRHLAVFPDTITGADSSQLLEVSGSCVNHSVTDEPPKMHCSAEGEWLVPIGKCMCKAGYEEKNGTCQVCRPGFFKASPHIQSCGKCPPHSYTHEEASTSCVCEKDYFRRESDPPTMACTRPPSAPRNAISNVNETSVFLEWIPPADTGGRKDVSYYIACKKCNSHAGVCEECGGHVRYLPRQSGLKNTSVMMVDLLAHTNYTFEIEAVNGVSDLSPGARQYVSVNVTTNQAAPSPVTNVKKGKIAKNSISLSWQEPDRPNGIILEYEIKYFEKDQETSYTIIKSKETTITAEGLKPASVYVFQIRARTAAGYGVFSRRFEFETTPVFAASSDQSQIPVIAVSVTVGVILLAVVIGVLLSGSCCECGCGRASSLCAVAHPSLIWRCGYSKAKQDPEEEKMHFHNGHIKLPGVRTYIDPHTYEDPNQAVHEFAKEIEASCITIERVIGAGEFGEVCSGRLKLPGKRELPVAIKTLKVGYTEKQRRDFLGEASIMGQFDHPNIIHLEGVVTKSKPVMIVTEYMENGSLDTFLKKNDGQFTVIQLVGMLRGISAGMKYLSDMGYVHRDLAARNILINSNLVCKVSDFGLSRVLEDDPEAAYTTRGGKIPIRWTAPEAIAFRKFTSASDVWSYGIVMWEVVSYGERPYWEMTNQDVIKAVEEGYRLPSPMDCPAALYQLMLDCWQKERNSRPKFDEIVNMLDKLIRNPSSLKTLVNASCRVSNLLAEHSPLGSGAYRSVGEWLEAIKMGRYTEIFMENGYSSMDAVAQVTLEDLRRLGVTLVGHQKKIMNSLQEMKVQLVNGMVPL
Fes(h), sequence (P07332 whole entry): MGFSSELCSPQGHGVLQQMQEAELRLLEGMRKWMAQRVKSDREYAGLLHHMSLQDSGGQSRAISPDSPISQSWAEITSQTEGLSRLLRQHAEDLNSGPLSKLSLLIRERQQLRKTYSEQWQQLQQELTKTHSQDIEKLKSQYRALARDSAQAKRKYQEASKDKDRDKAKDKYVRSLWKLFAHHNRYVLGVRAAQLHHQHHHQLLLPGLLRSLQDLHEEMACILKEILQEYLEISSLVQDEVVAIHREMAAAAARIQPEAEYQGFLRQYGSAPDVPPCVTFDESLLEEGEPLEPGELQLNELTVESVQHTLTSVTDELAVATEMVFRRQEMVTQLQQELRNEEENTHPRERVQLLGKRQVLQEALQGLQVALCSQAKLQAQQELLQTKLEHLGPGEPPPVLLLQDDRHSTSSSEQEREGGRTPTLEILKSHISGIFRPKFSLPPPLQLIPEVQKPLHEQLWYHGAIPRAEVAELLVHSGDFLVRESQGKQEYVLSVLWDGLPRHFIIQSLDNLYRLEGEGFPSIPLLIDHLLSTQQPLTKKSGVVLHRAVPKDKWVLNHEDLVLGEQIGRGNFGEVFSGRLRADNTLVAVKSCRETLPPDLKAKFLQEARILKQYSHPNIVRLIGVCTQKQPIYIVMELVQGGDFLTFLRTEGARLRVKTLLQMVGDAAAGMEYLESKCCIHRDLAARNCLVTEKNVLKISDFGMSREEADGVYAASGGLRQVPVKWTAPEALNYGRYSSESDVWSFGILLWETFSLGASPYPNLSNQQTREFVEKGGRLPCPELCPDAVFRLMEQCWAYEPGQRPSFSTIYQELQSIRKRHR
Rsk4(h), sequence (Q9UK32 whole entry): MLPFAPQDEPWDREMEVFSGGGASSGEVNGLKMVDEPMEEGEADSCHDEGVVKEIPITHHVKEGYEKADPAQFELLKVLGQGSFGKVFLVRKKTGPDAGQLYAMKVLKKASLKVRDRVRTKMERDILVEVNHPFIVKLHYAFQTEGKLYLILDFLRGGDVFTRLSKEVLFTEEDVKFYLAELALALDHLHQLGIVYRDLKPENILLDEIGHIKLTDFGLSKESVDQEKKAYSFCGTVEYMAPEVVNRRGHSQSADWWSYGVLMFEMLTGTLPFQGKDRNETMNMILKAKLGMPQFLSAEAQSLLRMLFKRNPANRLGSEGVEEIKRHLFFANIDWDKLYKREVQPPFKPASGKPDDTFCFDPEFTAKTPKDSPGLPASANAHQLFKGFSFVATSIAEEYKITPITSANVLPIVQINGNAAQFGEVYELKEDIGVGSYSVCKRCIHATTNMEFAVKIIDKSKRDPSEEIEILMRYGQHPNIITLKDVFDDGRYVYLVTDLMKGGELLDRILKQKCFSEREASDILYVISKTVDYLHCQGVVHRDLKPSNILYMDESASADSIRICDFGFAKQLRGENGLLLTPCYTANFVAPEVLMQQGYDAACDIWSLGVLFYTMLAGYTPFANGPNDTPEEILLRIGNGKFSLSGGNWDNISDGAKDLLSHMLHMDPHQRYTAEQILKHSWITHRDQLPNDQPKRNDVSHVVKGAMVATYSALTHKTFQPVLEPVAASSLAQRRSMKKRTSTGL
PKCθ(h), sequence (Q04759 whole entry): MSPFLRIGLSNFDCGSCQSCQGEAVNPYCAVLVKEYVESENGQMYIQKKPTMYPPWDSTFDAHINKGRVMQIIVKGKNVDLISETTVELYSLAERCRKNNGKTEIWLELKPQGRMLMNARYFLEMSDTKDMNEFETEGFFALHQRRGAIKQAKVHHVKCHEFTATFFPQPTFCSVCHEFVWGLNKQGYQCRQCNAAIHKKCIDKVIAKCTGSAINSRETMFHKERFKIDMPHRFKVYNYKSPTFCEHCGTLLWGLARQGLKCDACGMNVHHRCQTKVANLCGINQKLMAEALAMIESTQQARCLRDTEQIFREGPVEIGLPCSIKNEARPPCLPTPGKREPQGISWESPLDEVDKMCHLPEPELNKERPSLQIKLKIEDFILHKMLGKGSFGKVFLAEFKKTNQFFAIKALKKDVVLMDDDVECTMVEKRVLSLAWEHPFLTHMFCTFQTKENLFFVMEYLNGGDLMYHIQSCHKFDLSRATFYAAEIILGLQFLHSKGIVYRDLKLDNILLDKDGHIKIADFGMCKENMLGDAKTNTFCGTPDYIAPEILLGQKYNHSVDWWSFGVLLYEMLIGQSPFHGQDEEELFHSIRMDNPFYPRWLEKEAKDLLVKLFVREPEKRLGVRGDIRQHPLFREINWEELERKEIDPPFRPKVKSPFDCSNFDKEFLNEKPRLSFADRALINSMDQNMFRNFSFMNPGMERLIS
cKit(h), sequence (P10721 26-976): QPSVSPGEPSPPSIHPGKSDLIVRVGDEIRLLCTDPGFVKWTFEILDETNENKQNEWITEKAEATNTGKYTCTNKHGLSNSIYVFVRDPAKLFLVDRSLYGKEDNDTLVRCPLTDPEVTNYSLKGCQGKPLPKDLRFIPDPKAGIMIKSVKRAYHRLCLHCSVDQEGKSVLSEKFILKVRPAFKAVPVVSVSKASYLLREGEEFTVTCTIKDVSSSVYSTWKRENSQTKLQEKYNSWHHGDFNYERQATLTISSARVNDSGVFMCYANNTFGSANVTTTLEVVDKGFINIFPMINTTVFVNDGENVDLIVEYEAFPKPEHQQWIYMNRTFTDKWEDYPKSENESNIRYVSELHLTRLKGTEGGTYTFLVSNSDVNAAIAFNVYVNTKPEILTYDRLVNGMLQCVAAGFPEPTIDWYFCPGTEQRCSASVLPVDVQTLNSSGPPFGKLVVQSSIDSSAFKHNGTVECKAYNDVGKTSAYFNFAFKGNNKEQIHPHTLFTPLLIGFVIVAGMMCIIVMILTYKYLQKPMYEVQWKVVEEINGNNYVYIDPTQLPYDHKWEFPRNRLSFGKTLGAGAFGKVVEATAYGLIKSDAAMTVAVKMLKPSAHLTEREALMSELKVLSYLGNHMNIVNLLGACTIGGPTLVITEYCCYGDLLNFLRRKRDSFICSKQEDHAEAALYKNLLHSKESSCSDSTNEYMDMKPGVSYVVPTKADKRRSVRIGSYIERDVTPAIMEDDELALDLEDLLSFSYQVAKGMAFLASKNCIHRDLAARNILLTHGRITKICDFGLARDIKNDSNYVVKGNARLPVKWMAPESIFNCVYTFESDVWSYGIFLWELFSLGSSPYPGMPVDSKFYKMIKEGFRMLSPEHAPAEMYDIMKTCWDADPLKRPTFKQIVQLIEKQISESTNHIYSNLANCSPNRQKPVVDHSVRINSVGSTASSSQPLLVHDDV
PhKγ2(h), sequence (P15735 whole entry): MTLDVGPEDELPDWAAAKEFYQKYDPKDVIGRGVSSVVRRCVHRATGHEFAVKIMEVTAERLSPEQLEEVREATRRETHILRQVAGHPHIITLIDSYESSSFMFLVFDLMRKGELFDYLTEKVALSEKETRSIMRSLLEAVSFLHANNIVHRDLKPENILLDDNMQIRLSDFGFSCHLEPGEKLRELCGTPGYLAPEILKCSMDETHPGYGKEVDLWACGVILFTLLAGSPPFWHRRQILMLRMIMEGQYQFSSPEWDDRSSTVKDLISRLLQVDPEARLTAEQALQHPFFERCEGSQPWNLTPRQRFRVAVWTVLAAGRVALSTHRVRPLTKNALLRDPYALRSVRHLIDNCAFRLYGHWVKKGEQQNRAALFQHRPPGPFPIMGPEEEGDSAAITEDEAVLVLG
MAPKAP-K3(h), sequence (Q16644 whole entry): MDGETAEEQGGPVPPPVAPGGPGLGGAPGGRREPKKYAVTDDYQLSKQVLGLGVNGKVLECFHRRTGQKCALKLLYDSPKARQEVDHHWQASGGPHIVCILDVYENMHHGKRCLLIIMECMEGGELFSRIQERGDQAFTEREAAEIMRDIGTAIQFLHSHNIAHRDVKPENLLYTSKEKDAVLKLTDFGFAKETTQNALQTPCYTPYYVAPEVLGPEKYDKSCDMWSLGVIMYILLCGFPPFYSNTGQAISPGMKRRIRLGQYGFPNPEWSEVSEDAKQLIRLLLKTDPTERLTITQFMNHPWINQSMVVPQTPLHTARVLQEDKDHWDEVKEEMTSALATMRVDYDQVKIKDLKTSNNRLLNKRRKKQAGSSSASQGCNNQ
cKit(D816V)(h), sequence (P10721 26-976 D816V): as the sequence (P10721 26-976) above, with D791V counted along it

Compound	inhibition at 0.1 µM [1]	inhibition at 0.1 µM [2]	inhibition at 0.1 µM [3]	inhibition at 0.1 µM [4]	inhibition at 0.1 µM [5]	inhibition at 0.1 µM [6]	inhibition at 0.1 µM [7]	inhibition at 0.1 µM [8]	inhibition at 0.1 µM [9]	inhibition at 0.1 µM [10]	inhibition at 0.1 µM [11]	inhibition at 0.1 µM [12]	inhibition at 0.1 µM [13]	inhibition at 0.1 µM [14]	inhibition at 0.1 µM [15]	inhibition at 0.1 µM [16]	inhibition at 0.1 µM [17]	inhibition at 0.1 µM [18]	inhibition at 0.1 µM [19]	inhibition at 0.1 µM [20]	other results
Cc1cc2c(F)c(Oc3nc(Nc4cc(C5CC5)[nH]n4)cc(N4CCN(C)CC4)n3)ccc2[nH]1 [Compound 10]	91%	-8%	7%	36%	104%	-1%	30%	60%	37%	0%	33%	86%	6%	2%	-15%	-2%	21%	46%	-10%	4%	inhibition at 0.1 µM [21]: 66%; inhibition at 0.1 µM [22]: 48%; inhibition at 0.1 µM [23]: 2%; inhibition at 0.1 µM [24]: 11%; inhibition at 0.1 µM [25]: 67%; inhibition at 0.1 µM [26]: 6%; inhibition at 0.1 µM [27]: 76%; inhibition at 0.1 µM [28]: -38%; inhibition at 0.1 µM [29]: -4%; inhibition at 0.1 µM [30]: -8%; inhibition at 0.1 µM [31]: -6%; inhibition at 0.1 µM [32]: 5%
Cc1cc2c(F)c(Oc3nc(Nc4cc(C5CC5)[nH]n4)cc(N4CCNCC4)n3)ccc2[nH]1 [Compound 11, N-(5-cyclopropyl-1H-pyrazol-3-yl)-2-((4-fluoro-2-methyl-1H-indol-5-yl)oxy)-6-(piperazin-1-yl)pyrimidin-4-amine]	95%	-13%	31%	35%	102%	0%	20%	68%	30%	24%	38%	91%	0%	5%	19%	-9%	-16%	20%	9%	-15%	inhibition at 0.1 µM [21]: 47%; inhibition at 0.1 µM [22]: 54%; inhibition at 0.1 µM [23]: 13%; inhibition at 0.1 µM [24]: 4%; inhibition at 0.1 µM [25]: 64%; inhibition at 0.1 µM [26]: 5%; inhibition at 0.1 µM [27]: 81%; inhibition at 0.1 µM [28]: -19%; inhibition at 0.1 µM [29]: -10%; inhibition at 0.1 µM [30]: -6%; inhibition at 0.1 µM [31]: -1%; inhibition at 0.1 µM [32]: 5%
